Assays:
STAT3 = STAT3 (Homo sapiens, UniProt P40763); experiment: Immunoprecipitation and Western blotting, STAT3; type: binding; design: endogenous in cells; host or cells: U251; settings: immunoprecipitation, Western blotting, U251 cells
Description: Figure 2 PS-acet.-STAT3-peptide specifically binds STAT3 in the nucleus. (A) Penetration of PS-acet.-STAT3 peptide and its colocalization with STAT3 protein in U251 cells are confirmed by confocal microscopy. Scale bars: 50 μm. Insets: original magnification, ×40. (B) PS-acet.-STAT3 peptide specifically binds to STAT3 protein, not STAT1 and STAT5 proteins, shown in U251 cells by immunoprecipitation followed by Western blotting (left panel). Expression of total STAT1, STAT3, and STAT5 was confirmed by Western blotting in U251 cells (input protein level, right panel).
Whole cell lysates or tissue homogenates were prepared by using RIPA lysis buffer (50 mM Tris at pH 7.4, 150 mM NaCl, 1 mM EDTA, 0.5% NP-40, 1 mM NaF, 15% glycerol, and 20 mM β-glycerophosphate). […] Protein amounts were determined by BCA using a Thermo Fisher Scientific kit. […] The protein levels for STAT1 (sc-346, E-23), STAT3 (sc-482, C-20), STAT5 (sc-74442, A-9), Crm1 (exportin 1) (sc-5595, H-300), CAS (exportin 2) (sc-271537, H-2), exportin 5 (sc-66885, H-300), and exportin 7 (sc-98639, H-82) were determined using antibodies from Santa Cruz Biotechnology Inc. Anti–exportin 3 (exportin T, 630622, LOS1 05-1525), anti–exportin 4 (3499-1), and anti–exportin 6 (11408-1-AP) were from MilliporeSigma, Epitomics, and Proteintech, respectively. […]

pY694-STAT5 = experiment: Western blotting of p-STAT5 in HCT116 cells; type: cell-based, human; settings: HCT116, 1 µM, 48 hours
Protocol: Whole cell lysates or tissue homogenates were prepared by using RIPA lysis buffer (50 mM Tris at pH 7.4, 150 mM NaCl, 1 mM EDTA, 0.5% NP-40, 1 mM NaF, 15% glycerol, and 20 mM β-glycerophosphate). A protease inhibitor cocktail (Mini Protease Inhibitor Cocktail; Roche) and a tyrosine phosphatase inhibitor, sodium orthovanadate (Na3VO4, 1 mM), were added freshly to the lysis buffer. Protein amounts were determined by BCA using a Thermo Fisher Scientific kit. Normalized protein amounts were subjected to an SDS-PAGE and transferred onto a nitrocellulose membrane for Western blotting. Proteins were visualized with a chemiluminescent detection kit (Pierce, Thermo Fisher Scientific). The protein levels for STAT1 (sc-346, E-23), STAT3 (sc-482, C-20), STAT5 (sc-74442, A-9), Crm1 (exportin 1) (sc-5595, H-300), CAS (exportin 2) (sc-271537, H-2), exportin 5 (sc-66885, H-300), and exportin 7 (sc-98639, H-82) were determined using antibodies from Santa Cruz Biotechnology Inc. Anti–exportin 3 (exportin T, 630622, LOS1 05-1525), anti–exportin 4 (3499-1), and anti–exportin 6 (11408-1-AP) were from MilliporeSigma, Epitomics, and Proteintech, respectively. […]
Supplemental Figure 4 (related to Figure 1). […] Phosphorylation of STAT3 at Y705 and STAT5 at Y694 was detected by Western blotting after 48 hours treatment of PS-acet.-STAT3 peptide (1 µM) or napabucasin (1 µM) in HCT116 cells. […]

HCT116 cells = type: cell-based, human
Protocol: Bis-(1,3-Dibutylbarbituric Acid) Trimethine Oxonol [DiBAC4(3)]
Supplemental Figure 3 (related to Figure 1). The potential mechanism of PS-oligo
mediated cell penetration.
penetration was assessed by flow cytometry. SD is shown. Unpaired student t-test. ****
P< 0.001. Data shown is the representative of 3 independent experiments.
(B) HCT116 cells were pre-treated with a variety of endocytosis inhibitors prior to
treating with FAM-labeled PS-acet.-STAT3 peptide. The graph represents the statistical
analysis of the fluorescence intensity (M.F.I) of FAM-labeled peptide shown in A. SD is
shown. n= 5 independent experiments. Unpaired student t-test. **** P< 0.001.
(C) Polarization of cell membrane contributes to penetration of PS-acet.-STAT3
peptide. Cell membrane was depolarized by adding 120 mM KCl to HCT116 for 2.5 h,
followed by incubation with the peptide (upper panel). Data is representative of 4
independent experiments. Depolarization of the cell membrane was confirmed by
applying 2.5 mM DiBAC4(3) to other cells (lower panel). n= 3 independent experiments.
Penetration was assessed by flow cytometry. The right panels show the mean of
fluorescence intensity (M.F.I) quantified by FlowJo software. SD is shown. Unpaired
student t-test. *, P<0.05; *** P< 0.005.
Aftabizadeh and Li et al., Figure S3

Sequence of STAT3 (P40763 whole entry): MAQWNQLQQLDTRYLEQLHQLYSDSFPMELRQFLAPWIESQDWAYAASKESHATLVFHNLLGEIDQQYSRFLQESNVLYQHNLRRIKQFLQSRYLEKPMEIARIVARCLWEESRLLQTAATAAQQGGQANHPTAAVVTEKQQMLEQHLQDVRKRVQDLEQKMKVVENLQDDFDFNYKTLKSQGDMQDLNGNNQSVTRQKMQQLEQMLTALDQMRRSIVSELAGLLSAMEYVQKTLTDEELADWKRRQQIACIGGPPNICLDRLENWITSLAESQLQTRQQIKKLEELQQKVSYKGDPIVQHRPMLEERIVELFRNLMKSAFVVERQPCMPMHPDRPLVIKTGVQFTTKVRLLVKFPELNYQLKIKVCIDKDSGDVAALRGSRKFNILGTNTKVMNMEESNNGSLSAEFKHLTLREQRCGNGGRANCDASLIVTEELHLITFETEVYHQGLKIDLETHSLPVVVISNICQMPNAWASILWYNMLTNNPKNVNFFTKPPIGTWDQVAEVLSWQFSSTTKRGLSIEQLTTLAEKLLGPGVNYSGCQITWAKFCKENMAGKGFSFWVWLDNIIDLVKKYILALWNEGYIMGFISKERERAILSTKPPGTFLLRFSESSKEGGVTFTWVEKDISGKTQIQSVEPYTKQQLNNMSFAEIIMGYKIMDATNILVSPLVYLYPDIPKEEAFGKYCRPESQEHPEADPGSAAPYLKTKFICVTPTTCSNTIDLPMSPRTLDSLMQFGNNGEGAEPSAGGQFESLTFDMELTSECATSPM

In the case of “PDIPKEEAFGK685(Ac)YCRPESQEHPC-linker-T*C*C*A*T*G*A*G*C*T*T*C*C*T*G*A*T*G*C*T [PS-acet.-STAT3 peptide]”, the “binding to STAT3 protein” value (STAT3) is reported as “specifically bound”, the “p-STAT5 (Y694) level” value (pY694-STAT5) is reported as “not” and the “peptide penetration in presence of dextran sulfate” value (HCT116 cells) is reported as “partially”.

Reference: paper PMC7934871 (JCI Insight, 2021)
